In brackets after ≈: the same amount, converted by molar mass. Like-named read-outs stand apart in the source and are kept apart here.
Experiments:
[1] = system: Salmonella enterica serovar Typhimurium ATCC 14028
[2] = system: Staphylococcus aureus ATCC 6538; assay: MIC determination by broth micro dilution (Example 5); format: cell-based; conditions: ATCC6538; Staphylococcus aureus ATCC 6538, 4.5×10^3 Cfu/Ml
Method: Minimum Inhibitory Concentration (MIC) Determination by Broth Micro Dilution
(§1) Standardisation of Inoculum
The suspensions were mixed. […] The inoculums were 30 mixed.
(§2) Inoculation and Incubation
100 μl of the initial concentration of the sample was added to the first well.
Staphylococcus aureus ATCC 6538 4.5×10^3 Cfu/Ml

[3] = system: Candida albicans ATCC 10231; format: cell-based; conditions: ATCC10231
Method: (§3) MIC Determination by Broth Micro Dilution
as §1
(§4) The inoculums were mixed.
as §2

[4] = in vitro; conditions: human
[5] = format: cell-based; conditions: Table 12, strain not named
Method: as §3, §1, §4, §2

[6] = system: Candida albicans NCTC 885-653; format: cell-based; parameters: unit not given beside the values
Method: as §3, §1, §4, §2

Row | SMILES | MIC ([1]; Salmonella enterica) [µg/mL] | MIC [2] [µg/mL] | MIC [3] [µg/mL] | other results
1 | CN[C@H](CC(C)C)C(=O)N[C@H]1C(=O)N[C@@H](CC(N)=O)C(=O)N[C@H]2C(=O)N[C@H]3C(=O)N[C@H](C(=O)N[C@H](C(=O)O)c4cc(O)cc(O)c4-c4cc3ccc4O)[C@H](O)c3ccc(c(Cl)c3)Oc3cc2cc(c3O[C@@H]2O[C@H](CO)[C@@H](O)[C@H](O)[C@H]2O[C@H]2C[C@](C)(N)[C@H](O)[C@H](C)O2)Oc2ccc(cc2Cl)[C@H]1O [Vancomycin, reference compound] | 78 (≈ 53.8 µM) | – | – | –
2 | Cc1ccc(C(C)C)c(OC(=O)C[N+](C)(C)CCCCCCCCCC[N+](C)(C)CCCCCCCCCC[N+](C)(C)CC(=O)Oc2cc(C)ccc2C(C)C)c1 [Formula VII, N1-(2-(2-isopropyl-5-methylphenoxy)−2-oxoethyl)-N10-(10-((2-(2-isopropyl-5-methylphenoxy)-2-oxoethyl)dimethylammonio)decyl)-N1,N1,N10,N10-tetramethyldecane-1,10-diaminium bromide dichloride] | – | 0.98 | – | –
3 | Cc1ccc(C(C)C)cc1OC(=O)C[N+](C)(C)CCCCCCCCCC[N+](C)(C)CC(=O)Oc1cc(C(C)C)ccc1C [Formula IV, N1,N10-bis(2-(5-isopropyl-2-methylphenoxy)−2-oxoethyl)-N1,N1,N10,N10-tetramethyldecane-1,10-diaminium dichloride] | 3.9 | – | 3.9 to 7.8 | CC50 [4]: > 120 µg/mL; MIC ([1]; Salmonella enterica serovar Typhimurium ATCC 14028 (log 4 conditions)): 3.9
4 | Cc1ccc(C(C)C)c(OC(=O)C[N+](C)(C)CCCCCCCCCC[N+](C)(C)CC(=O)Oc2cc(C)ccc2C(C)C)c1 [Formula V, N1,N10-bis(2-(2-isopropyl-5-methylphenoxy)−2-oxoethyl)-N1,N1,N10,N10-tetramethyldecane-1,10-diaminium dichloride] | – | – | 3.9 to 7.8 | MIC [5]: 0.98 µg/mL; MIC (Table 11, head not given) [6]: 3.9-7.8
5 | Cc1ccc(C(C)C)c(OC(=O)C[N+](C)(C)CCCCCCCCCC[N+](C)(C)CCCCCCCCCC[N+](C)(C)CC(=O)Oc2cc(C(C)C)ccc2C)c1.[Br-].[Cl-].[Cl-] [Comparative compound 1, reference compound] | – | 1.95 | – | –

— US12577196B2 (priority 2019, dated 2026)
